In patent US12207654B2, “Bactericidal agent for agricultural or horticultural use, plant disease control method, and product for plant disease control use” (Kureha Corporation, priority 2019, dated 2025):
“And” between values parts separate entries of the source, which are not always exact repeats. Equal values may be shown once.

Experiments:
[1] = test system: Cercospora beticola; experiment: In vitro antimicrobial activity test in 96-well microplate (absorbance at 620 nm); assay type: cell-based; settings: used alone
[2] = test system: Glomerella cingulata; experiment: In vitro antimicrobial activity test on PDA plate media (colony diameter); assay type: cell-based
[3] = test system: Fusarium fujikuroi; experiment: as above; assay type: cell-based; settings: used alone
[4] = test system: wheat leaf rust (Puccinia recondita); experiment: Controlling effect test against wheat leaf rust (foliar spray on potted wheat seedlings); assay type: in vivo; settings: sprayed alone
[5] = test system: Colletotrichum lindemuthianum; experiment: In vitro antimicrobial activity test in 96-well microplate (absorbance at 620 nm); assay type: cell-based; settings: used alone
[6] = test system: Fusarium graminearum; experiment: microbe, parasite or virus in culture; assay type: cell-based
[7] = test system: Pyrenophora graminea; experiment: In vitro antimicrobial activity test on PDA plate media (colony diameter); assay type: cell-based; settings: used alone
[8] = test system: Gaeumannomyces graminis; experiment: as above; assay type: cell-based; settings: used alone
[9] = test system: Pyrenophola teres; experiment: as above; settings: read-out: Actual fungal growth inhibition rate (%)
[10] = test system: Alternaria alternata apple pathotype; experiment: as above; assay type: cell-based; settings: used alone
[11] = test system: Penicillium italicum; experiment: as above; assay type: cell-based; settings: Penicillium italicum; single chemical at 0.13 ppm
[12] = test system: Microdocum nivale; experiment: as above; assay type: cell-based; settings: used alone

How did the inhibition at 0.02 ppm ([1]; Cercospora beticola, 0.02 ppm, read-out: Actual growth inhibition rate) turn out when `COC(=O)C(O)(Cn1cncn1)c1ccc(Oc2ccc(Cl)cc2)cc1Cl` (stereo not drawn) [Azole derivative I-1, methyl 2-hydroxy-2-(2-chloro-4-(4-chlorophenoxy)phenyl)-3-(1H-1,2,4-triazole-1-yl)propanoate] was run?
The inhibition at 0.02 ppm was 0%.

And the inhibition at 0.5 ppm ([1]; Cercospora beticola, 0.5 ppm, read-out: Actual growth inhibition rate)?
The inhibition at 0.5 ppm was 6%.

What about the inhibition at 2.5 ppm ([1]; Cercospora beticola, 2.5 ppm, read-out: Actual growth inhibition rate) of the same molecule?
The inhibition at 2.5 ppm was 99%.

What about the inhibition at 0.01 ppm ([2]; Colletotrichum gloeosporioides, used alone, 0.01 ppm, read-out: Actual fungal growth inhibition rate (%)) of the same molecule?
Its inhibition at 0.01 ppm is 0%.

And the inhibition at 0.03 ppm ([2]; Colletotrichum gloeosporioides, used alone, 0.03 ppm, read-out: Actual fungal growth inhibition rate (%))?
The inhibition at 0.03 ppm was 9%.

And the inhibition at 0.13 ppm ([2]; Colletotrichum gloeosporioides, used alone, 0.13 ppm, read-out: Actual fungal growth inhibition rate (%))?
Its inhibition at 0.13 ppm is 49%.

And the inhibition at 0.5 ppm ([2]; Colletotrichum gloeosporioides, used alone, 0.50 ppm, read-out: Actual fungal growth inhibition rate (%))?
The inhibition at 0.5 ppm was 77%.

What about the “Actual fungal growth inhibition rate (%)” value ([2]; used alone, 0.50 ppm) of the same molecule?
Its value is 75%.

What about the inhibition at 0.01 ppm ([3]; Fusarium fujikuroi, 0.01 ppm, read-out: Actual fungal growth inhibition rate (%)) of the same molecule?
The inhibition at 0.01 ppm was 0%.

And the inhibition at 0.03 ppm ([3]; Fusarium fujikuroi, 0.03 ppm, read-out: Actual fungal growth inhibition rate (%))?
Its inhibition at 0.03 ppm is 4%.

What about the inhibition at 0.5 ppm ([3]; Fusarium fujikuroi, 0.50 ppm, read-out: Actual fungal growth inhibition rate (%)) of the same molecule?
Its inhibition at 0.5 ppm is 59%.

And the Actual controlling rate ([4]; 0.63 g/ha)?
The Actual controlling rate was 16% and 11%.

And the Actual controlling rate ([4]; 1.25 g/ha)?
Its Actual controlling rate is 40% and 67%.

And the Actual controlling rate ([4]; 2.5 g/ha)?
Its Actual controlling rate is 83% and 98%.

And the inhibition at 0.1 ppm ([5]; Colletotrichum lindemuthianum, 0.10 ppm, read-out: Actual growth inhibition rate)?
Its inhibition at 0.1 ppm is 0%.

What about the inhibition at 0.25 ppm ([6]; Fusarium graminearum, read-out: Actual fungal growth inhibition rate (%)) of the same molecule?
The inhibition at 0.25 ppm was 0%.

What about the inhibition at 0.01 ppm ([7]; Pyrenophora graminea, 0.01 ppm, read-out: Actual fungal growth inhibition rate (%)) of the same molecule?
Its inhibition at 0.01 ppm is 37%.

And the inhibition at 0.03 ppm ([7]; Pyrenophora graminea, 0.03 ppm, read-out: Actual fungal growth inhibition rate (%))?
The inhibition at 0.03 ppm was 71%.

And the inhibition at 0.5 ppm ([7]; Pyrenophora graminea, 0.50 ppm, read-out: Actual fungal growth inhibition rate (%))?
Its inhibition at 0.5 ppm is 94%.

What about the “Actual fungal growth inhibition rate (%)” value ([7]; 0.03 ppm) of the same molecule?
The value was 70% and 68%.

And the “Actual fungal growth inhibition rate (%)” value ([7]; 0.13 ppm)?
The value was 81% and 80% and 57% and 82%.

And the “Actual fungal growth inhibition rate (%)” value ([7]; 0.50 ppm)?
Its value is 95% and 93%.

And the inhibition at 0.03 ppm ([8]; Gaeumannomyces graminis, 0.03 ppm, read-out: Actual fungal growth inhibition rate (%))?
The inhibition at 0.03 ppm was 31%.

And the inhibition at 0.13 ppm ([8]; Gaeumannomyces graminis, 0.13 ppm, read-out: Actual fungal growth inhibition rate (%))?
The inhibition at 0.13 ppm was 94%.

What about the “Actual fungal growth inhibition rate (%)” value ([8]; 0.03 ppm) of the same molecule?
Its value is 28%.

And the “Actual fungal growth inhibition rate (%)” value ([8]; 0.13 ppm)?
The value was 93%.

What about the inhibition at 0.25 ppm [9] of the same molecule?
The inhibition at 0.25 ppm was 48%.

And the inhibition at 0.01 ppm ([10]; Alternaria alternata, 0.01 ppm, read-out: Actual fungal growth inhibition rate (%))?
The inhibition at 0.01 ppm was 0%.

What about the inhibition at 0.03 ppm ([10]; Alternaria alternata, 0.03 ppm, read-out: Actual fungal growth inhibition rate (%)) of the same molecule?
Its inhibition at 0.03 ppm is 0%.

And the “Actual fungal growth inhibition rate (%)” value ([10]; 0.13 ppm)?
Its value is 1%.

Which “Actual fungal growth inhibition rate (%)” value ([2]; Glomerella cingulata, single chemical at 0.01 ppm) does the source give for `COC(=O)C(O)(Cn1cncn1)c1ccc(Oc2ccc(Cl)cc2)cc1Br` (stereo not drawn) [Azole derivative I-228] here?
Its value is 0%.

And the “Actual fungal growth inhibition rate (%)” value ([2]; Glomerella cingulata, single chemical at 0.03 ppm)?
The value was 16%.

What about the “Actual fungal growth inhibition rate (%)” value ([2]; used alone, 0.01 ppm) of the same molecule?
Its value is 2%.

And the “Actual fungal growth inhibition rate (%)” value ([2]; used alone, 0.03 ppm)?
The value was 12%.

And the “Actual fungal growth inhibition rate (%)” value ([2]; used alone, 0.50 ppm)?
The value was 82%.

What about the “Actual fungal growth inhibition rate (%)” value [11] of the same molecule?
The value was 56%.

And the “Actual fungal growth inhibition rate (%)” value ([12]; 1.25 ppm)?
The value was 56%.

What about the “Actual fungal growth inhibition rate (%)” value ([12]; 5.00 ppm) of the same molecule?
The value was 86%.

What about the “Actual fungal growth inhibition rate (%)” value ([3]; 0.50 ppm) of the same molecule?
Its value is 21%.

What about the “Actual fungal growth inhibition rate (%)” value [6] of the same molecule?
Its value is 39%.

And the “Actual fungal growth inhibition rate (%)” value ([7]; 0.50 ppm)?
Its value is 84%.

And the “Actual fungal growth inhibition rate (%)” value ([8]; 0.13 ppm)?
The value was 89%.

What about the “Actual fungal growth inhibition rate (%)” value ([8]; 0.31 ppm) of the same molecule?
The value was 63%.

What about the “Actual fungal growth inhibition rate (%)” value ([8]; 1.25 ppm) of the same molecule?
The value was 67%.

What about the “Actual fungal growth inhibition rate (%)” value ([8]; 5.00 ppm) of the same molecule?
The value was 71%.

Which inhibition at 0.625 ppm [9] does the source give for `COC(=O)Nc1nc2ccccc2[nH]1` [Carbendazim, carbendazim] here?
Its inhibition at 0.625 ppm is 0%.

And the inhibition at 2.5 ppm [9]?
Its inhibition at 2.5 ppm is 6%.

What about the inhibition at 10 ppm [9] of the same molecule?
The inhibition at 10 ppm was 13%.

And the inhibition at 40 ppm [9]?
The inhibition at 40 ppm was 14%.

For `Cc1cccc(-n2nnn(C)c2=O)c1COc1ccn(-c2ccc(Cl)cc2)n1` [Metyltetraprole, metyltetraprole], which “Actual growth inhibition rate” value ([1]; 0.08 ppm) is on record?
The value was 72%.

And the “Actual growth inhibition rate” value ([5]; 0.08 ppm)?
Its value is 6%.

And the “Actual growth inhibition rate” value ([5]; 0.4 ppm)?
Its value is 73%.

And the “Actual growth inhibition rate” value ([5]; 2.0 ppm)?
Its value is 91%.

And the “Actual fungal growth inhibition rate (%)” value ([7]; 0.001 ppm)?
Its value is 0%.
